Each block holds one compound with its values, some of them ahead of it.
How the values were obtained:
[1] = Pharmacokinetic study of oral vs intra-cecal administration of tacrolimus: blood, rectal content, GI tissue and luminal content (Example 13); design: species or system Yorkshire-Cross farm swine; settings: female, Yorkshire-Cross, swine, in vivo, 0.09 mg/kg
Text: No further randomization procedure was employed.

IL-6 = settings: low dose PO group (15 mg/kg), by 12 h post-dose
GM-CSF = GM-CSF in plasma and colon tissue by ELISA, DSS-induced colitis mouse model; assay type: in vivo, mice; settings: between IC and PO treatment groups, plasma or colon tissue (data not shown)

Tissue(mean) (ng/g)/Trough(12 hr)(ng/mL) Ratio [1]: 0
Compound: C=CC[C@@H]1/C=C(\C)C[C@H](C)C[C@H](OC)[C@H]2O[C@@](O)(C(=O)C(=O)N3CCCC[C@H]3C(=O)O[C@H](/C(C)=C/[C@@H]3CC[C@@H](O)[C@H](OC)C3)[C@H](C)[C@@H](O)CC1=O)[C@H](C)C[C@@H]2OC [tacrolimus]

Compound: C[C@@H]1CCN(C(=O)CC#N)C[C@@H]1N(C)c1ncnc2[nH]ccc12.O=C(O)CC(O)(CC(=O)O)C(=O)O [tofacitinib citrate]
IL-6 expression in colon tissue (IL-6): Recovery from IL-6 inhibition

Compound: C[C@@H]1CCN(C(=O)CC#N)C[C@@H]1N(C)c1ncnc2[nH]ccc12 [tofacitinib]
GM-CSF levels (GM-CSF): nor was there a significant difference
